# Test results reported in patent US8134007B2, “Pyridine derivatives” (Pfizer Inc., priority 2007, dated 2012).
# pIC50: −log10 of the molar value. Read-outs that look alike come from different tables or passages of the source.
# Assays:
# Format in all cases: cell-based
# Human Nav1.8 = biological target: T1, Human Nav1.8 (Homo sapiens, UniProt Q9Y5Y9); experiment: VIPR Assay for Nav1.8 Compounds (FRET membrane potential, deltamethrin opener)
# T1 construct: expressed in transfected cells; host or cells: HEK293
# [1] = tested on: tetrodotoxin-sensitive voltage-gated sodium channels including NaV1.2, NaV1.3 and NaV1.7; experiment: TTX-S Assay (VIPR, SHSY-5Y cell line, veratridine opener); details: read-out: TTX-S IC50, veratridine 50 μM opener, average of replicates
# Human Nav1.5 = biological target: T2, Human Nav1.5 (Homo sapiens, UniProt Q14524); experiment: Nav1.5 Assay (VIPR, HEK293 cells)
# T2 construct: expressed in transfected cells; host or cells: HEK293
# Protocol: The Nav1.5 assay is performed in HEK293 cells expressing Human Nav1.5 in the same way as the Nav1.8 assay.
# Where replicate experiments were conducted resulting in multiple sets of data for a test compound, the data presented represent the average value from all replicate experiments.
# [2] = VIPR FRET membrane potential assay, deltamethrin opener, average of replicates, read-out: Nav1.8 IC50
# [3] = HEK293 cells expressing Human Nav1.5, average of replicates, read-out: Nav1.5 IC50
# T1 sequence (Q9Y5Y9 whole entry): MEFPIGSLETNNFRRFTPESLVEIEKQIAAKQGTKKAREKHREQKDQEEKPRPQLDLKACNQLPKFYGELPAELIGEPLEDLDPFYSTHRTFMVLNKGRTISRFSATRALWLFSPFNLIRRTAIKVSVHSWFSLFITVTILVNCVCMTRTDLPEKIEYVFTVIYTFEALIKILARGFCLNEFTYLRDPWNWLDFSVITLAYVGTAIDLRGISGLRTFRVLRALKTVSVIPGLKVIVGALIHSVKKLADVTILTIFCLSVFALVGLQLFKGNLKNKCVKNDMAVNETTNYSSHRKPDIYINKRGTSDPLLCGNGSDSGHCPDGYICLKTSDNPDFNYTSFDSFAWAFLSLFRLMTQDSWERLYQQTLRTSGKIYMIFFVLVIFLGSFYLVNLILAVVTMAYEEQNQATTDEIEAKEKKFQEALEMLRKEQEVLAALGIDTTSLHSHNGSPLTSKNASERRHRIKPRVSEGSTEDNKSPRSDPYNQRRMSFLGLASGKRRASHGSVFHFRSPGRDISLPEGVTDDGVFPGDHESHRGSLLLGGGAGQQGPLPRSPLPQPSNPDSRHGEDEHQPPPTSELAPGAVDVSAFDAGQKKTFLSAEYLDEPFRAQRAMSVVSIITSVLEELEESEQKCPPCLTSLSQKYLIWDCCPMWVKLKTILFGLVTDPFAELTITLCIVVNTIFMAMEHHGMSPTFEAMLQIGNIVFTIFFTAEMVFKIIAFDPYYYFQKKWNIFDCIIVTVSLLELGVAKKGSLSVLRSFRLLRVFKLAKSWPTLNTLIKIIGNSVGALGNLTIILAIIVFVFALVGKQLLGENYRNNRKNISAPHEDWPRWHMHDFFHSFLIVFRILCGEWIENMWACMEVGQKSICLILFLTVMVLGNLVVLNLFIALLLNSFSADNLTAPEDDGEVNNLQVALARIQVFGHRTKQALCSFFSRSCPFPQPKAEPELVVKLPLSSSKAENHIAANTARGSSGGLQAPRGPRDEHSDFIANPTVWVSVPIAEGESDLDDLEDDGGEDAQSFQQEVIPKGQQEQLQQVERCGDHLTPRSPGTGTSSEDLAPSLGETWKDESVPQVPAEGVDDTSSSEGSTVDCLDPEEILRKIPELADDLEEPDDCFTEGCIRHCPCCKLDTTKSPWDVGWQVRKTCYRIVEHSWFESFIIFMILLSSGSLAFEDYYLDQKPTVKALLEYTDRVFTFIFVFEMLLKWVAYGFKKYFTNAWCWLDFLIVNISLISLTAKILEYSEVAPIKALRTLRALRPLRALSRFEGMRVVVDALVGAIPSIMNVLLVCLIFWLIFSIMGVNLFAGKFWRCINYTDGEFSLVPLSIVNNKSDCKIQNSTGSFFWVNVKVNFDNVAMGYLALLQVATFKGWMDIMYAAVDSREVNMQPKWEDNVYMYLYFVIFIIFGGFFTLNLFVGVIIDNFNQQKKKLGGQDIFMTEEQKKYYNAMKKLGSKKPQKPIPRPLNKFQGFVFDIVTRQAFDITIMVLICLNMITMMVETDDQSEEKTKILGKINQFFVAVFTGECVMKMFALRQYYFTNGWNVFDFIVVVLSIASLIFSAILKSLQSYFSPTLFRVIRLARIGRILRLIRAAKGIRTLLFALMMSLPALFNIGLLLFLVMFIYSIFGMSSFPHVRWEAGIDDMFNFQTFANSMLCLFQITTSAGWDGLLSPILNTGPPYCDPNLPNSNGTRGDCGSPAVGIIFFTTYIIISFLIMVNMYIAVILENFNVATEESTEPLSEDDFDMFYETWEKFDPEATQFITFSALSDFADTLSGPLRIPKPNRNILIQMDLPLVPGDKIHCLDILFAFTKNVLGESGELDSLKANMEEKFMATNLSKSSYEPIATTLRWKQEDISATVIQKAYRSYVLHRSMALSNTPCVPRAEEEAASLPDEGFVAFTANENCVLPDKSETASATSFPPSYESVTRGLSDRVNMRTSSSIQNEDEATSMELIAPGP
# T2 sequence (Q14524 whole entry): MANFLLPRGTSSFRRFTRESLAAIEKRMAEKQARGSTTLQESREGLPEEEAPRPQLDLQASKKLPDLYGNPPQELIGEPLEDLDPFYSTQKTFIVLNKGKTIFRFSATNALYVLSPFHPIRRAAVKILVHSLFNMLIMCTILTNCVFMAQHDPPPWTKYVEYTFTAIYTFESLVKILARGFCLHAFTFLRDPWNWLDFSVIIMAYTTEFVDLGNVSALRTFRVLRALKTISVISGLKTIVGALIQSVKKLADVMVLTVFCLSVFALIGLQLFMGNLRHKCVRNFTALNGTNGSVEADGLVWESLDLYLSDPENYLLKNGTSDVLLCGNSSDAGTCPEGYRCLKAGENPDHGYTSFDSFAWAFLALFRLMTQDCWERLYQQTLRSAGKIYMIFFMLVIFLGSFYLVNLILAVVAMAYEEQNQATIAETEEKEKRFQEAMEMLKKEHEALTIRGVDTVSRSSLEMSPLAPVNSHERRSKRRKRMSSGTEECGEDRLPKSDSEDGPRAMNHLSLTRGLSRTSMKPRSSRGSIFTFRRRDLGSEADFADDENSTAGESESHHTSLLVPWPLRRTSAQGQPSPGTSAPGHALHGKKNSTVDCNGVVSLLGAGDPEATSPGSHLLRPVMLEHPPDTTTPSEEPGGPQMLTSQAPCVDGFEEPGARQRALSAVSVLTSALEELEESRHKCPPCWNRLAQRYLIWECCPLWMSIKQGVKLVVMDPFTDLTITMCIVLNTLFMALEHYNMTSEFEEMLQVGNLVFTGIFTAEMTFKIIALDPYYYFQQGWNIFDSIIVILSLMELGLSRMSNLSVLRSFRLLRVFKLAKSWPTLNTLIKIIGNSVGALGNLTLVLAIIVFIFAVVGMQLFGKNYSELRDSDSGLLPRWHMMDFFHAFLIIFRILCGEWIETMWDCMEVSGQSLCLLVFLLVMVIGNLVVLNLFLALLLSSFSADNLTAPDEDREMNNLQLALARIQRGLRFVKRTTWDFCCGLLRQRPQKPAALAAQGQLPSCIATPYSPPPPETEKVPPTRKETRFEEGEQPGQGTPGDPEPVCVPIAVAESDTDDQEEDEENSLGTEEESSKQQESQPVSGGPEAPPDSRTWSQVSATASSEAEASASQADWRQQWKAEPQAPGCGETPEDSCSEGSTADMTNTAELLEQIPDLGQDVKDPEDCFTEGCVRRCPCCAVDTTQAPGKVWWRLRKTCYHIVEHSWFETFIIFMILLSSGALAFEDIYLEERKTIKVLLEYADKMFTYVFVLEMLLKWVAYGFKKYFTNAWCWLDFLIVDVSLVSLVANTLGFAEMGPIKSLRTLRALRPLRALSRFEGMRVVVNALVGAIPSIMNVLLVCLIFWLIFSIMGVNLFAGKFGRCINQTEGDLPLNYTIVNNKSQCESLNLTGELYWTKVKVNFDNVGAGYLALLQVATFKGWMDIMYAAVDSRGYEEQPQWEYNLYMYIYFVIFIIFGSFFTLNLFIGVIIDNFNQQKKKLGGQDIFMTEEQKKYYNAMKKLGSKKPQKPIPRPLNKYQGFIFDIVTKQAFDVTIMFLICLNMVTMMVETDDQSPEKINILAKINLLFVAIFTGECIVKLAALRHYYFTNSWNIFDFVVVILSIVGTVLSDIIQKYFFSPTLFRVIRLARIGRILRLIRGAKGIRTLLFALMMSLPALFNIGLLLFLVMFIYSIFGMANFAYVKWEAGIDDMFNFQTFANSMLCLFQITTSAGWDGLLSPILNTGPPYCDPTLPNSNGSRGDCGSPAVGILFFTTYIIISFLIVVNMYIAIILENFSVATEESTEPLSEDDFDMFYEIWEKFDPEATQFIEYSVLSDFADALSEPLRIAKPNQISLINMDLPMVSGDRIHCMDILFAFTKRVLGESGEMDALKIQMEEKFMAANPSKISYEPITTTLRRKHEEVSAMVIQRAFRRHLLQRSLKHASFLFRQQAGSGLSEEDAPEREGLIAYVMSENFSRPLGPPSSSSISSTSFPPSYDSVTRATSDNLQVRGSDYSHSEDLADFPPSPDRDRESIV
Structure (SMILES),pIC50 (Human Nav1.8; [2]),pIC50 [1],pIC50 (Human Nav1.5; [3]),pIC50 (Human Nav1.8),pIC50 (Human Nav1.5)
"Cn1nccc1C(=O)Nc1ccc(-c2cc(Cl)cc(Cl)c2Cl)c(N)n1 [Example 4, N-[6-Amino-5-(2,3,5-trichlorophenyl)pyridin-2-yl]-1-methyl-1H-pyrazole-5-carboxamide]",6.17,–,–,–,–
"Cc1oncc1C(=O)Nc1ccc(-c2cc(Cl)ccc2Cl)c(N)n1 [Example 21, N-[6-Amino-5-(2,5-dichlorophenyl)pyridin-2-yl]-5-methylisoxazole-4-carboxamide]",4.64,4.57,–,–,–
"Cc1oncc1C(=O)Nc1ccc(-c2cc(Cl)cc(Cl)c2Cl)c(N)n1 [Example 22, N-[6-Amino-5-(2,3,5-trichlorophenyl)pyridin-2-yl]-5-methylisoxazole-4-carboxamide]",6.00,–,5.34,–,–
"Cc1nocc1C(=O)Nc1ccc(-c2cc(Cl)ccc2Cl)c(N)n1 [Example 25, N-[6-Amino-5-(2,5-dichlorophenyl)pyridin-2-yl]-3-methylisoxazole-4-carboxamide]",5.80,5.00,–,–,–
"Cc1nocc1C(=O)Nc1ccc(-c2cc(Cl)cc(Cl)c2Cl)c(N)n1 [Example 28, N-[6-Amino-5-(2,3,5-trichlorophenyl)pyridin-2-yl]-3-methylisoxazole-4-carboxamide]",6.17,–,5.02,–,–
"Cc1nonc1C(=O)Nc1ccc(-c2cc(Cl)ccc2Cl)c(N)n1 [Example 44, N-[6-Amino-5-(2,5-dichlorophenyl)pyridin-2-yl]-4-methyl-1,2,5-oxadiazole-3-carboxamide]",5.49,5.09,–,–,–
"COc1ccc(Cl)c(-c2ccc(NC(=O)c3nonc3C)nc2N)c1 [Example 45, N-[6-Amino-5-(2-chloro-5-methoxyphenyl)pyridin-2-yl]-4-methyl-1,2,5-oxadiazole-3-carboxamide]",5.59,4.89,–,–,–
"Cc1nonc1C(=O)Nc1ccc(-c2ccccc2Cl)c(N)n1 [Example 46, N-[6-Amino-5-(2-chlorophenyl)pyridin-2-yl]-4-methyl-1,2,5-oxadiazole-3-carboxamide]",5.92,4.52,–,–,–
"Cc1nonc1C(=O)Nc1ccc(-c2ccc(Cl)cc2Cl)c(N)n1 [Example 49, N-[6-Amino-5-(2,4-dichlorophenyl)pyridin-2-yl]-4-methyl-1,2,5-oxadiazole-3-carboxamide]",5.21,4.92,–,–,–
"COc1cc(Cl)cc(-c2ccc(NC(=O)c3nonc3C)nc2N)c1Cl [Example 51, N-[6-Amino-5-(2,5-dichloro-3-methoxyphenyl)pyridin-2-yl]-4-methyl-1,2,5-oxadiazole-3-carboxamide]",5.59,5.35,–,–,–
"CC(C)n1nccc1C(=O)Nc1ccc(-c2ccccc2Cl)c(N)n1 [Example 66, N-[6-Amino-5-(2-chlorophenyl)pyridin-2-yl]-1-isopropyl-1H-pyrazole-5-carboxamide]",5.62,4.96,–,–,–
"Nc1nc(NC(=O)c2ccon2)ccc1-c1cc(Cl)ccc1Cl [Example 72, N-[6-Amino-5-(2,5-dichlorophenyl)pyridin-2-yl]isoxazole-3-carboxamide]",5.07,4.82,–,–,–
"Nc1nc(NC(=O)c2ccon2)ccc1-c1ccccc1Cl [Example 74, N-[6-Amino-5-(2-chlorophenyl)pyridin-2-yl]isoxazole-3-carboxamide]",5.38,4.52,–,–,–
"CC(C)Oc1ccc(F)cc1-c1ccc(NC(=O)c2ccnn2C)nc1N [Example 109, N-[6-amino-5-(5-fluoro-2-isopropoxyphenyl)pyridin-2-yl]-1-methyl-1H-pyrazole-5-carboxamide]",5.24,–,4.57,–,–
"CCOc1ccc(OC(F)(F)F)c(-c2ccc(NC(=O)c3ccnn3C)nc2N)c1 [Example 110, N-{6-amino-5-[5-ethoxy-2-(trifluoromethoxy)phenyl]pyridin-2-yl}-1-methyl-1H-pyrazole-5-carboxamide]",5.82,–,5.64,–,–
COc1ccc(F)cc1-c1ccc(NC(=O)c2conc2C)nc1N [Example 123],5.62,–,< 4.49,–,–
COc1cccc(-c2ccc(NC(=O)c3ccnn3C)nc2N)c1OC [Example 125],–,–,–,4.60,< 4.49
COCc1ccccc1-c1ccc(NC(=O)c2conc2C)nc1N [Example 129],5.46,–,4.70,–,–
CCOc1ccccc1-c1ccc(NC(=O)c2ccnn2C)nc1N [Example 130],5.64,–,4.66,–,–

Structure (SMILES),pIC50 (Human Nav1.8; [2]),pIC50 [1],pIC50 (Human Nav1.5; [3]),pIC50 (Human Nav1.8),pIC50 (Human Nav1.5)
CC(C)COc1ccccc1-c1ccc(NC(=O)c2ccnn2C)nc1N [Example 131],6.19,–,4.74,–,–
CCOc1ccc(F)cc1-c1ccc(NC(=O)c2ccnn2C)nc1N [Example 132],5.82,–,< 4.49,–,–
COc1cccc(-c2ccc(NC(=O)c3conc3C)nc2N)c1OC [Example 133],5.54,–,< 4.49,–,–
Cc1nocc1C(=O)Nc1ccc(-c2ccccc2OCC(F)(F)F)c(N)n1 [Example 134],6.39,–,4.74,–,–
CCOc1ccc(F)cc1-c1ccc(NC(=O)c2conc2C)nc1N [Example 135],6.55,–,4.59,–,–
CCCOc1ccc(F)cc1-c1ccc(NC(=O)c2ccnn2C)nc1N [Example 136],6.22,–,4.57,–,–
Cc1ccc(OC(F)(F)F)c(-c2ccc(NC(=O)c3ccnn3C)nc2N)c1 [Example 137],5.92,–,4.74,–,–
COCc1ccc(Cl)c(-c2ccc(NC(=O)c3conc3C)nc2N)c1 [Example 138],6.00,–,4.64,–,–
Cn1nccc1C(=O)Nc1ccc(-c2ccccc2CC(F)(F)F)c(N)n1 [Example 139],5.68,–,5.12,–,–
COc1ccc(OC(F)(F)F)c(-c2ccc(NC(=O)c3ccnn3C)nc2N)c1 [Example 140],6.37,–,4.74,–,–
COCc1ccc(Cl)c(-c2ccc(NC(=O)c3ccnn3C)nc2N)c1 [Example 141],5.27,–,< 4.49,–,–
COc1ccc(Cl)c(-c2ccc(NC(=O)c3ccnn3C(C)C)nc2N)c1 [Example 142],6.02,–,4.77,–,–
Cn1nccc1C(=O)Nc1ccc(-c2ccccc2OCC2CC2)c(N)n1 [Example 143],6.01,–,4.62,–,–
CCCCOc1ccc(F)cc1-c1ccc(NC(=O)c2ccnn2C)nc1N [Example 144],6.28,–,4.64,–,–
Cc1nocc1C(=O)Nc1ccc(-c2cc(F)ccc2OC(C)C)c(N)n1 [Example 145],5.82,–,4.55,–,–
Cc1nocc1C(=O)Nc1ccc(-c2ccccc2CC(F)(F)F)c(N)n1 [Example 146],–,–,4.89,–,–
COCCOc1ccc(F)cc1-c1ccc(NC(=O)c2ccnn2C)nc1N [Example 147],4.92,–,< 4.49,–,–
COc1ccc(OC(F)(F)F)c(-c2ccc(NC(=O)c3conc3C)nc2N)c1 [Example 148],6.25,–,5.00,–,–
COCCOc1ccccc1-c1ccc(NC(=O)c2conc2C)nc1N [Example 149],5.40,–,< 4.49,–,–

Structure (SMILES),pIC50 (Human Nav1.8; [2]),pIC50 [1],pIC50 (Human Nav1.5; [3]),pIC50 (Human Nav1.8),pIC50 (Human Nav1.5)
CCOc1ccc(Cl)c(-c2ccc(NC(=O)c3ccnn3C)nc2N)c1 [Example 150],5.60,–,4.72,–,–
COCCOc1ccc(Cl)c(-c2ccc(NC(=O)c3ccnn3C)nc2N)c1 [Example 151],5.29,–,< 4.49,–,–
COCCCOc1ccc(F)cc1-c1ccc(NC(=O)c2conc2C)nc1N [Example 152],5.72,–,4.51,–,–
COCCCOc1ccc(F)cc1-c1ccc(NC(=O)c2ccnn2C)nc1N [Example 153],–,–,< 4.49,5.06,–
CCOc1ccc(Cl)c(-c2ccc(NC(=O)c3conc3C)nc2N)c1 [Example 154],6.33,–,5.00,–,–
COCCOc1ccccc1-c1ccc(NC(=O)c2ccnn2C)nc1N [Example 155],4.74,–,< 4.49,–,–
COCCCOc1ccccc1-c1ccc(NC(=O)c2conc2C)nc1N [Example 156],5.51,–,4.51,–,–
COCCCOc1ccccc1-c1ccc(NC(=O)c2ccnn2C)nc1N [Example 157],5.02,–,< 4.49,–,–
COC(C)COc1ccc(F)cc1-c1ccc(NC(=O)c2ccnn2C)nc1N (stereo not shown) [Example 158],4.82,–,< 4.49,–,–
COC(C)COc1ccc(F)cc1-c1ccc(NC(=O)c2conc2C)nc1N (stereo not shown) [Example 159],5.33,–,< 4.49,–,–
COC(C)COc1ccccc1-c1ccc(NC(=O)c2ccnn2C)nc1N (stereo not shown) [Example 160],4.89,–,< 4.49,–,–
COC(C)COc1ccccc1-c1ccc(NC(=O)c2conc2C)nc1N (stereo not shown) [Example 161],5.17,–,< 4.49,–,–
CCCOc1ccc(F)cc1-c1ccc(NC(=O)c2conc2C)nc1N [Example 162],7.05,–,5.11,–,–
Cc1nocc1C(=O)Nc1ccc(-c2cc(Cl)ccc2OCC(F)(F)F)c(N)n1 [Example 163],6.32,–,5.00,–,–
Cc1nocc1C(=O)Nc1ccc(-c2cc(F)ccc2OC2CCOC2)c(N)n1 (stereo not shown) [Example 167],4.96,–,< 4.49,–,–
COCCOc1ccc(F)cc1-c1ccc(NC(=O)c2conc2C)nc1N [Example 169],5.31,–,< 4.49,–,–
COCCOc1ccc(Cl)c(-c2ccc(NC(=O)c3conc3C)nc2N)c1 [Example 170],6.05,–,4.68,–,–
Cc1nocc1C(=O)Nc1ccc(-c2cc(O)cc(Cl)c2Cl)c(N)n1 [Example 176],5.85,–,5.00,–,–
Cn1nccc1C(=O)Nc1ccc(-c2cc(O)cc(Cl)c2Cl)c(N)n1 [Example 177],5.89,–,4.92,–,–
